{
  "source": "paper PMC7408547",
  "about": "“Bivalent Inhibitor with Selectivity for Trimeric MMP-9 Amplifies Neutrophil Chemotaxis and Enables Functional Studies on MMP-9 Proteoforms” (Cells, 2020)",
  "test_system": "secretions of fMLF stimulated human granulocytes",
  "assay": "Gelatinolysis in secretions of fMLF stimulated human granulocytes",
  "type": "biochemical",
  "conditions": "neutrophil elastase inhibitor 20 µM; depending on the donor (n = 4)",
  "protocol": "To determine the inhibition of gelatinolytic activity, we used a previously optimized gelatin degradation assay. Activated MMP-9, activated MMP-2, neutrophil elastase or supernatants of stimulated neutrophils, were incubated with different concentrations of inhibitors and incubated for 30 min at 37 °C. Next, dye-quenched gelatin (DQ™-gelatin, Invitrogen, Carlsbad, CA, USA) was added at a final concentration of 2.5 µg/mL and the increase in fluorescence over time was measured with the CLARIOstar microplate reader (BMG Labtech, Ortenberg, Germany). For other MMPs, the OmniMMP substrate peptide (Mca-PLGL-Dpa-AR-NH2, cat. no. BML-P126-0001, Enzo Life Sciences, Farmingdale, NY, USA) was used at a final concentration of 2.5 µg/mL. For ADAM17 the fluorogenic peptide Mca-PLAQAV-Dpa-RSSSR-NH2 (ES003, R & D systems, Minneapolis, MO, USA) and for neutrophil elastase the fluorogenic substrate MeOSuc-AAPV-AMC (cat. no. 324740, Merck Millipore, Darmstadt, Germany) were used. Proteolytic activity was determined by linear regression of the fluorescence curve and the percentage inhibition was calculated through comparison with the positive control (no inhibitors). When testing supernatants from human neutrophils, the assay was performed in the presence of 20 µM neutrophil elastase inhibitor (Elastase Inhibitor IV, Calbiochem, Darmstadt, Germany).\nNeutrophils were isolated from fresh blood from healthy donors, via density gradient centrifugation as described. To obtain neutrophil degranulate, neutrophils were suspended in degranulation buffer (120 mM NaCl, 15 mM CaCl2, 20 mM Tris/HCl pH 7.5) at a concentration of 10^7 cells/mL and degranulation was induced by incubating neutrophils with N-formyl-methionyl-leucyl-phenylalanine (fMLF) (final concentration 0.5 µM) for 20 min at 37 °C as previously described. Next, the supernatant was collected by centrifugation. For fresh blood donations, all subjects gave written informed consent in accordance with the Declaration of Helsinki.",
  "data": [
    {"smiles": "Cc1cccc(C(=O)n2nc(C#N)c3ccccc32)c1", "note": "[neutrophil elastase inhibitor, reference compound]", "values": [
      {"measurement": "percentage of gelatinolytic activity inhibited", "value": "84–97%"}
    ]}
  ]
}
